Source: BindingDB's records for doi:10.1021/jm00395a016 (Medical Research Division of American Cyanamid, 1988)

Biological target: Thromboxane-A synthase (Rattus norvegicus)
Test: Tested for inhibition of thromboxane Synthetase from spontaneously hypertensive rats

With `CC(Cn1ccnc1)Cn1c(=O)[nH]c2cc(Cl)ccc2c1=O` (stereo unspecified) the IC50 was 0.01 µM.
